The record followed here is patent publication US8217035B2, “Pyrimidine derivatives used as PI-3-kinase inhibitors” (Novartis AG, priority 2006, dated 2012).

The target of the first experiment is PI3 kinase alpha (Homo sapiens, UniProt P42336). In words: PI3K ATP depletion assay (Biological Method 1, Assay 3; KinaseGlo luminescence). It is filed as biochemical.
Sequence of PI3 kinase alpha (P42336 whole entry): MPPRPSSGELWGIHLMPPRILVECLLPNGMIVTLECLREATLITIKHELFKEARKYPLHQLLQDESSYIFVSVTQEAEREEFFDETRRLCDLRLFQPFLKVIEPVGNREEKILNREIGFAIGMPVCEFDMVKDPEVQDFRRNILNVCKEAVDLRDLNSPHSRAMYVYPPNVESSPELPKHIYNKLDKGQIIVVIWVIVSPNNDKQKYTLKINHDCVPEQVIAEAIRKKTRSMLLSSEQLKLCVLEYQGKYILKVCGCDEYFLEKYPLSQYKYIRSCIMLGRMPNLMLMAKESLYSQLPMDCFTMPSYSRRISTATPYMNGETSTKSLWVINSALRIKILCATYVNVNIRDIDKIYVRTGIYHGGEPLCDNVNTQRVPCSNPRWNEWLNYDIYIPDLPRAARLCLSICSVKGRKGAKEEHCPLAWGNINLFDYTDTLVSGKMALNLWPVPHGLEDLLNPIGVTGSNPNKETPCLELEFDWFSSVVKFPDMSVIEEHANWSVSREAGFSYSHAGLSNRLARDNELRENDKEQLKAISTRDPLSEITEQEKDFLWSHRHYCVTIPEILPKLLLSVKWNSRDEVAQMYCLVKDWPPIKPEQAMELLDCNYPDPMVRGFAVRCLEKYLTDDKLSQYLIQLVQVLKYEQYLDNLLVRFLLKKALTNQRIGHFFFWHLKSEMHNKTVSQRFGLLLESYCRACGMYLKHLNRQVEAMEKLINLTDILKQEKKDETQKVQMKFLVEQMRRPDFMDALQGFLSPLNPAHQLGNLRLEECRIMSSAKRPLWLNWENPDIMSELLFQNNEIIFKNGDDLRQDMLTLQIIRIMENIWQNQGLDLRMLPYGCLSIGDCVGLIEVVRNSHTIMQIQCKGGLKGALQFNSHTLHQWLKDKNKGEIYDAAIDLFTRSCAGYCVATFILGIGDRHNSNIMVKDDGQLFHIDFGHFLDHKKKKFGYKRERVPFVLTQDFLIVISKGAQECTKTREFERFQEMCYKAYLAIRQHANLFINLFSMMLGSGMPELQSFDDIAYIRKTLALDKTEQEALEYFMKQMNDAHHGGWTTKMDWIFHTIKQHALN
Sequence of PI3 kinase alpha (P27986 whole entry partner): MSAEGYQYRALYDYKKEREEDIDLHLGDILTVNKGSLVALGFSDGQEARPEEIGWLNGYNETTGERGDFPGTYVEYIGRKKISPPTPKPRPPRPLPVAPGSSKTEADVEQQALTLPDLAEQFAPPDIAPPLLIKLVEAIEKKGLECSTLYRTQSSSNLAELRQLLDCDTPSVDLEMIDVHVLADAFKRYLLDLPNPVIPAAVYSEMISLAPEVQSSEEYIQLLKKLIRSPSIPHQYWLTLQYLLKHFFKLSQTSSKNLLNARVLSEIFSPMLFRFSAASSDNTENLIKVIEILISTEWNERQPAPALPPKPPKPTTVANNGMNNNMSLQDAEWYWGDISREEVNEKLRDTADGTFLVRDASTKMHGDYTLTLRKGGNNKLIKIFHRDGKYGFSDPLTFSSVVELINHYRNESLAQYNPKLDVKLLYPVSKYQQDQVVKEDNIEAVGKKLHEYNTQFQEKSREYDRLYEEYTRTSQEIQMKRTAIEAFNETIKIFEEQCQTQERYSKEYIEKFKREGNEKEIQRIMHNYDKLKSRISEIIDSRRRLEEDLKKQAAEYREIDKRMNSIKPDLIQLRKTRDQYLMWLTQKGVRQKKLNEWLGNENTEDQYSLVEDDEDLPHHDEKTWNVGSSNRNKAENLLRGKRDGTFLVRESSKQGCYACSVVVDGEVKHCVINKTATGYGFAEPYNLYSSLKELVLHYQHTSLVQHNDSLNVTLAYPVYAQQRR
Details: not given
The procedure:
The PI3 kinase alpha IC50 values shown in Table 1 were determined according to the ATP depletion assay as disclosed herein in Biological Method 1.
Assay 3: ATP Depletion Assay
Compounds to be tested are dissolved in DMSO and directly distributed into a black 384-well plate at 1.25 μL per well. To start the reaction, 25 μL of 10 nM PI3 kinase and 5 μg/mL 1-alpha-phosphatidylinositol (PI) are added into each well followed by 25 μL of 2 μM ATP. The reaction is performed until approx 50% of the ATP is depleted, and then stopped by the addition of 25 μL of KinaseGlo solution purchased from Promega. The stopped reaction is incubated for 5 minutes and the remaining ATP is then detected via luminescence.
In general terms: In Kinase-Glo more light means more ATP remaining.
In the case of `Cc1c(Nc2cnc3ccccc3c2)nc(N2CCOCC2)nc1-c1cnc(N)cc1C(F)(F)F` [Compound 469], the IC50 (in general, the midpoint of a concentration-inhibition curve) was < 1 µM.

The same experiment, now with this note: ATP depletion assay, Biological Method 1; read-out: PI3 Kinase Alpha, IC50.
On to `Nc1ncc(-c2cc(Nc3cnc4ccccc4c3)nc(N3CCOCC3)n2)cc1S(N)(=O)=O` [Compound 222], for which the concentration for half-maximal inhibition (IC50) was < 10 µM. As to `Nc1ccc(-c2cc(C(=O)N3CCNCC3)nc(N3CCOCC3)n2)cn1` [Compound 224], the IC50 is < 10 µM. On the same count and under the same terms, to `CN(C)CCOc1ccc(-c2cc(-c3ccc(N)nc3)nc(N3CCOCC3)n2)cn1` [Compound 225] belongs < 1 µM; to `CN1CCC(Oc2ccc(-c3cc(-c4ccc(N)nc4)nc(N4CCOCC4)n3)cn2)CC1` [Compound 226], < 1 µM. In the case of `Nc1ccc(-c2cc(-c3ccc(F)nc3)nc(N3CCOCC3)n2)cn1` [Compound 228], the IC50 is < 1 µM. For `NC(=O)c1cc(-c2cnc(N)nc2)nc(N2CCOCC2)n1` [Compound 229], the IC50 is < 1 µM. As for `Nc1ncc(-c2cc(C(=O)O)nc(N3CCOCC3)n2)cn1` [Compound 236], the IC50 is < 1 µM.

Turning to `CS(=O)(=O)c1ccccc1Nc1cc(-c2cnc(N)cc2C(F)(F)F)nc(N2CCOCC2)n1` [Compound 240], the IC50 is < 1 µM. Take `Nc1cc(C(F)(F)F)c(-c2cc(Nc3cc(C(F)(F)F)ccn3)nc(N3CCOCC3)n2)cn1` [Compound 243]: the IC50 was < 1 µM. `CC(=O)Nc1cnc(N2CCOCC2)nc1-c1cnc(N)nc1` [Compound 256]: the IC50 was < 1 µM.

On to `CC(=O)Nc1cnc(N2CCOCC2)nc1-c1ccc(N)nc1` [Compound 257], for which the IC50 was < 10 µM. On the same count and under the same terms, the result for `Nc1ncc(-c2cc(Nc3cnc4ccccc4c3)nc(N3CCOCC3)n2)c(OCCN2CCNCC2)n1` [Compound 272] reads < 1 µM; that for `Nc1ccc(-c2cc(Nc3cc4ccccc4nc3OCCN3CCCC3)nc(N3CCOCC3)n2)cn1` [Compound 286], < 10 µM; that for `CN1CCC(Oc2ncccc2-c2cc(-c3ccc(N)nc3)nc(N3CCOCC3)n2)C1` (stereo not shown) [Compound 288], < 10 µM.

`Nc1ccc(-c2cc(Sc3nc[nH]n3)nc(N3CCOCC3)n2)cn1` [Compound 292]: the IC50 was < 10 µM. Take `Cn1cnnc1Sc1cc(-c2ccc(N)nc2)nc(N2CCOCC2)n1` [Compound 293]: the half-inhibitory concentration (IC50) was < 10 µM.

As to `Nc1ccc(-c2cc(Sc3ncc[nH]3)nc(N3CCOCC3)n2)cn1` [Compound 296], the IC50 is < 10 µM. Consider `Nc1ccc(-c2cc(NC(=O)c3cccnc3)nc(N3CCOCC3)n2)cn1` [Compound 297], for which the IC50 is < 1 µM. `Nc1ccc(-c2cc(NC(=O)C3CCCCC3)nc(N3CCOCC3)n2)cn1` [Compound 298]: the IC50 is < 1 µM. Regarding `Nc1ccc(-c2cc(-c3nnn[nH]3)nc(N3CCOCC3)n2)cn1` [Compound 309], the IC50 was < 1 µM. Still for that read-out and setting: to `Nc1ccc(-c2cc(-c3c[nH]nn3)nc(N3CCOCC3)n2)cn1` [Compound 310] belongs < 1 µM; to `Nc1cc(C(F)(F)F)c(-c2nc(N3CCOCC3)nc(N3CCOCC3)c2Cl)cn1` [Compound 312], < 1 µM; to `Nc1cc(C(F)(F)F)c(-c2cc(N3CCOC4(CCCC4)C3)nc(N3CCOCC3)n2)cn1` [Compound 319], < 1 µM. Regarding `Nc1ccc(-c2cc(N3CCOC(C(=O)O)C3)nc(N3CCOCC3)n2)cn1` (stereo not shown) [Compound 339], the IC50 is < 10 µM. For `Nc1ccc(-c2cc(N3CCOC(c4cccnc4)C3)nc(N3CCOCC3)n2)cn1` (stereo not shown) [Compound 340], the IC50 was < 1 µM. For `Nc1ccc(-c2cc(Nc3cccc4cn[nH]c34)nc(N3CCOCC3)n2)cn1` [Compound 346], the IC50 is < 1 µM.

`CC(=O)Nc1ccccc1Nc1cc(-c2ccc(N)nc2)nc(N2CCOCC2)n1` [Compound 353]: the IC50 is < 10 µM. On to `CC(=O)N1CCc2cccc(Nc3cc(-c4ccc(N)nc4)nc(N4CCOCC4)n3)c21` [Compound 354], for which the IC50 is < 1 µM. On to `Nc1ccc(-c2cc(Nc3ccccc3-n3ccnc3)nc(N3CCOCC3)n2)cn1` [Compound 355], for which the IC50 is < 1 µM. As to `Cc1cc(-c2cc(Nc3cnc4ccccc4c3)nc(N3CCOCC3)n2)cnc1N` [Compound 365], the IC50 was < 10 µM. As to `N#Cc1cc(-c2cc(Nc3cnc4ccccc4c3)nc(N3CCOCC3)n2)cnc1N` [Compound 366], the IC50 was < 10 µM. In the case of `CN(C)c1cc(-c2ccc(N)nc2)nc(N2CCOCC2)n1` [Compound 370], the IC50 is < 10 µM.

`CN(c1cc(-c2ccc(N)nc2)nc(N2CCOCC2)n1)C1CCCCC1` [Compound 372]: the half-inhibitory concentration (IC50) was < 10 µM.

Turning to `Nc1ccc(-c2cc(NC3CCCCC3)nc(N3CCOCC3)n2)cn1` [Compound 373], the IC50 is < 10 µM. Consider `Nc1ccc(-c2cc(NC3CCOCC3)nc(N3CCOCC3)n2)cn1` [Compound 374], for which the half-inhibitory concentration (IC50) was < 10 µM. For the compound `Nc1ccc(-c2cc(N3CCc4ccccc4C3)nc(N3CCOCC3)n2)cn1` [Compound 375], the IC50 was < 1 µM. `Nc1ccc(-c2cc(N3CCNC(=O)C3)nc(N3CCOCC3)n2)cn1` [Compound 376]: the IC50 is < 10 µM. Take `Nc1ccc(-c2cc(Nc3ccccc3C(F)(F)F)nc(N3CCOCC3)n2)cn1` [Compound 379]: the IC50 was < 1 µM. The same measure, in the same setting: the result for `Nc1ccc(-c2cc(Nc3ccc4c(c3)NC(=O)CO4)nc(N3CCOCC3)n2)cn1` [Compound 381] reads < 1 µM; that for `Nc1ccc(-c2cc(N3CCCc4ccccc43)nc(N3CCOCC3)n2)cn1` [Compound 382], < 1 µM; that for `Nc1ccc(-c2cc(Nc3cnccc3C(F)(F)F)nc(N3CCOCC3)n2)cn1` [Compound 385], < 1 µM. Same read-out and setting: the result for `COc1ccc(Nc2cc(-c3ccc(N)nc3)nc(N3CCOCC3)n2)cc1OC` [Compound 388] reads < 1 µM. For the compound `Nc1ccc(-c2cc(Nc3cccc4c3OCCO4)nc(N3CCOCC3)n2)cn1` [Compound 389], the IC50 is < 1 µM. As to `Nc1ncc(-c2cc(N3CCC(C(F)(F)F)CC3)nc(N3CCOCC3)n2)cn1` [Compound 391], the IC50 was < 1 µM. Consider `Nc1ncc(-c2cc(N[C@H]3CCCC[C@@H]3OCc3ccccc3)nc(N3CCOCC3)n2)cn1` [Compound 395], for which the IC50 was < 1 µM. For the compound `Nc1ncc(-c2cc(N[C@@H]3CCCC[C@H]3OCc3ccccc3)nc(N3CCOCC3)n2)cn1` [Compound 397], the IC50 is < 1 µM.

The same experiment, now with this note: ATP depletion assay; read-out: PI3 Kinase Alpha, IC50.
For `COc1ccc(Nc2cc(-c3ccc(N)nc3)nc(N3CCOCC3)n2)cn1` [Compound 2], the IC50 was < 1 µM. For `CC(C)(C)OC(=O)N1CCC[C@@H](Oc2cc(-c3cnc(N)cc3C(F)(F)F)nc(N3CCOCC3)n2)C1` [Compound 21], the IC50 is < 1 µM. Consider `CC(=O)N1CC[C@@H](Oc2cc(-c3cnc(N)cc3C(F)(F)F)nc(N3CCOCC3)n2)C1` [Compound 23], for which the IC50 is < 1 µM.

For `Nc1ncc(-c2cc(N[C@@H]3CCC[C@H]3OCc3ccccc3)nc(N3CCOCC3)n2)cn1` [Compound 398], the IC50 is < 1 µM. For `CS(=O)(=O)c1cccc(-c2cc(-c3cnc(N)cc3-c3nn[nH]n3)nc(N3CCOCC3)n2)c1` [Compound 414], the IC50 was < 1 µM. In the case of `Nc1cc(C(F)(F)F)c(-c2cc(N3CCN(c4ccccc4)C(=O)C3)nc(N3CCOCC3)n2)cn1` [Compound 416], the IC50 was < 1 µM. On to `Nc1ncc(-c2nc(N3CCOCC3)ncc2C(=O)NCC2CC2)cn1` [Compound 419], for which the IC50 is < 10 µM. For the compound `CN(C)CCNC(=O)c1cnc(N2CCOCC2)nc1-c1cnc(N)nc1` [Compound 420], the half-inhibitory concentration (IC50) is < 10 µM. Regarding `Nc1ncc(-c2nc(N3CCOCC3)ncc2C(=O)NCC2CCCO2)cn1` (stereo not shown) [Compound 421], the IC50 was < 10 µM. Consider `CC(=O)NCCNC(=O)c1cnc(N2CCOCC2)nc1-c1cnc(N)nc1` [Compound 423], for which the IC50 was < 10 µM. `COCCNC(=O)c1cnc(N2CCOCC2)nc1-c1cnc(N)nc1` [Compound 424]: the IC50 was < 10 µM. Turning to `Nc1ncc(-c2nc(N3CCOCC3)ncc2C(=O)N2CCCC2)cn1` [Compound 425], the IC50 was < 10 µM. On the same count and under the same terms, the result for `Nc1ncc(-c2nc(N3CCOCC3)ncc2C(=O)NC2CCOCC2)cn1` [Compound 426] reads < 10 µM; that for `Nc1ncc(-c2nc(N3CCOCC3)ncc2C(=O)N2CCOCC2)cn1` [Compound 429], < 10 µM; that for `Nc1ncc(-c2nc(N3CCOCC3)ncc2C(=O)O)cn1` [Compound 430], < 10 µM. On to `Nc1ccc(-c2cc(NCCc3ccccn3)nc(N3CCOCC3)n2)cn1` [Compound 433], for which the IC50 was < 10 µM. As for `Nc1ccc(-c2cc(NCCc3cccnc3)nc(N3CCOCC3)n2)cn1` [Compound 434], the IC50 was < 10 µM.

Turning to `Nc1ccc(-c2cc(NCCc3ccncc3)nc(N3CCOCC3)n2)cn1` [Compound 435], the IC50 is < 10 µM. On the same count and under the same terms, the result for `Nc1ccc(-c2cc(NCc3ccncc3)nc(N3CCOCC3)n2)cn1` [Compound 443] reads < 1 µM; that for `Nc1ccc(-c2cc(NCc3ccccn3)nc(N3CCOCC3)n2)cn1` [Compound 444], < 1 µM.

As for `Nc1ccc(-c2cc(NCc3cccnc3)nc(N3CCOCC3)n2)cn1` [Compound 445], the IC50 is < 1 µM. On the same count and under the same terms, to `Nc1cc(C(F)(F)F)c(-c2cc(OC3CCNCC3)nc(N3CCOCC3)n2)cn1` [Compound 459] belongs < 1 µM. As to `Nc1ccc(-c2cc(C(F)(F)F)nc(N3CCOCC3)n2)cn1` [Compound 471], the IC50 is < 1 µM.

For the compound `Nc1ccc(-c2nc(N3CCOCC3)ncc2C(F)(F)F)cn1` [Compound 473], the IC50 is < 10 µM.

As for `Cc1nc(N)ncc1-c1cc(Cl)nc(N2CCOCC2)n1` [Compound 479], the IC50 was < 1 µM. Turning to `Nc1cc(C(F)(F)F)c(-c2cc(N3CCOCC3c3ccc(F)cc3)nc(N3CCOCC3)n2)cn1` (stereo not shown) [Compound 485], the IC50 is < 1 µM.
